# Read-outs that look alike come from different tables or passages of the source.
# Legend:
# KRAS G12D = KRAS G12D (Homo sapiens, UniProt P01116, G12D); assay: KRAS G12D LoEnz Biochemical Assay, BODIPY-GDP Exchange TR-FRET (Example 500); conditions: read-out: KRas (G12D) GDP HTRF IC50
# Procedure: Example 500: KRAS G12D LoEnz Biochemical Assay, BODIPY-GDP Exchange TR-FRET. Biochemical compound potencies are assessed by evaluating inhibition of SOS1-mediated nucleotide exchange in KRAS G12D. In this assay, the SOS1-promoted exchange of fluorescently-labeled GDP (BOPIDY-GDP) is monitored by time-resolved fluorescence resonance energy transfer (TR-FRET). Compounds solubilized in DMSO are dispensed as concentration series into 384-well white assay plates. A preformed complex of biotin-tagged recombinant human KRAS (0.06 nM mutant G12D) and 0.06 nM terbium-labeled streptavidin (CisBIO) prepared in 10 uL/well assay buffer (20 mM HEPES, pH 7.5, 50 mM NaCl, 10 mM MgCl2, 0.01% Tween-20 and 1 mM dithiothreitol) is added and allowed to incubate for 10-minutes at room temperature. The reaction is initiated with the addition of 5 uL 300 nM recombinant human SOS1 and 300 nM BODIPY-GDP in assay buffer. After a 120-minute incubation, the fluorescence is measured with excitation at 337 nm and emission at 490 and 520 nm. The TR-FRET ratio is determined as the fluorescence at 520 nm divided by the fluorescence at 490 nm multiplied by 10,000. The results are normalized to percent inhibition based on control samples: DMSO (0% inhibition) and control compound at a concentration that inhibits completely (100% inhibition). The normalized TR-FRET results are plotted against compound concentration, and the data are fit to a 4-parameter Hill equation to determine the IC50 values.
# KRAS WT [1] = biological target: T1, KRAS WT (Homo sapiens, UniProt P01116); assay: KRAS WT Biochemical Assay, BODIPY-GDP Exchange TR-FRET (Example 502; 0.06 nM KRAS WT, 15 nM GDP, 300 nM SOS1, 120-minute incubation); conditions: SOS1-mediated BODIPY-GDP exchange, read-out: KRas HTRF IC50
# T1 sequence (P01116 1-188 isoform P01116-2): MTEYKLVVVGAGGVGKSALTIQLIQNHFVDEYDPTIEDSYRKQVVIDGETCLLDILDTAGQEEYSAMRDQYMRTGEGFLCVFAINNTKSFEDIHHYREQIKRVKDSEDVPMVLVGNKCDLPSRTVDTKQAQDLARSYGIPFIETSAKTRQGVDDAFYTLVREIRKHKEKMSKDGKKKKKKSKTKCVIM
# Procedure: Example 502: KRAS WT Biochemical Assay, BODIPY-GDP Exchange TR-FRET. Biochemical compound potencies are assessed by evaluating inhibition of SOS1-mediated nucleotide exchange in KRAS WT. In this assay, the SOS1-promoted exchange of fluorescently-labeled GDP (BOPIDY-GDP) is monitored by time-resolved fluorescence resonance energy transfer (TR-FRET). Compounds solubilized in DMSO are dispensed as concentration series into 384-well white assay plates. A preformed complex of 0.06 nM biotin-tagged recombinant human KRAS WT, 15 nM GDP and 0.06 nM terbium-labeled streptavidin (CisBIO) prepared in 10 uL/well assay buffer (20 mM HEPES, pH 7.5, 50 mM NaCl, 10 mM MgCl2, 0.01% Tween-20 and 1 mM dithiothreitol) is added and allowed to incubate for 10-minutes at room temperature. The reaction is initiated with the addition of 5 uL 300 nM recombinant human SOS1 and 300 nM BODIPY-GDP in assay buffer. After a 120-minute incubation, the fluorescence is measured with excitation at 337 nm and emission at 490 and 520 nm. The TR-FRET ratio is determined as the fluorescence at 520 nm divided by the fluorescence at 490 nm multiplied by 10,000. The results are normalized to percent inhibition based on control samples: DMSO (0% inhibition) and control compound at a concentration that inhibits completely (100% inhibition). […]
# [2] = tested on: HPAC (homozygous mutant KRAS G12D human pancreatic cell line); assay: KRAS 3D-Cell Proliferation Assay, HPAC (Example 503); type: cell-based; conditions: Homo sapiens, HPAC, 168 h, HPAC 3D culture, 7 days, CellTiter-Glo 3D; read-out: Prolif HPAC 3D ATP IC50
# In short: (§1)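 KRAS G12D homozygous pancreatic lines and KRAS wild-type lung lines grown as 3D cultures in ultra-low-attachment wells in RPMI-1640/10% FBS, dosed after overnight with compound dilution series (0.3% DMSO final) for 7 days at 37 °C. ATP read by CellTiter-Glo 3D luminescence; IC50 from 4-parameter Hill fit, normalized to DMSO and 1 μM staurosporine.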
# [3] = tested on: H1975 (KRAS wild type human lung adenocarcinoma cell line); assay: KRAS 3D-Cell Proliferation Assay, H1975 (Example 503); type: cell-based; conditions: Homo sapiens, NCI-H1975, 168 h, H1975 3D culture, 7 days, CellTiter-Glo 3D; read-out: Prolif H1975 3D ATP IC50
# In short: as §1
# [4] = tested on: AsPC-1 (homozygous mutant KRAS G12D human pancreatic cell line); assay: KRAS 3D-Cell Proliferation Assay, AsPC-1 (Example 503); type: cell-based; conditions: Homo sapiens, ASPC1, 168 h, AsPC-1 3D culture, 7 days, CellTiter-Glo 3D; read-out: Prolif AsPC-1 3D ATP IC50
# In short: as §1
# KRAS WT [5] = biological target: T1, KRAS WT; assay: KRAS WI Biochemical Assay, BODIPY-GDP Exchange TR-FRET (Example 501; 3 nM KRAS WT, 3 nM SOS1, 60-minute incubation)
# Procedure: Example 501: KRAS WI Biochemical Assay, BODIPY-GDP Exchange TR-FRET. Biochemical compound potencies are assessed by evaluating inhibition of SOS1-mediated nucleotide exchange in KRAS WT. In this assay, the SOS1-promoted exchange of fluorescently-labeled GDP (BOPIDY-GDP) is monitored by time-resolved fluorescence resonance energy transfer (TR-FRET). Compounds solubilized in DMSO are dispensed as concentration series into 384-well white assay plates, and 5 uL assay buffer (20 mM HEPES, pH 7.5, 50 mM NaCl, 10 mM MgCl2, 0.01% Tween-20 and 1 mM dithiothreitol) is added just prior to the start of the assay. A preformed complex of 3 nM biotin-tagged recombinant human KRAS WT and 0.3 nM terbium-labeled streptavidin (CisBIO) prepared in 5 uL/well assay buffer is added and allowed to incubate for 10-minutes at room temperature. The reaction is initiated with the addition of 5 uL 3 nM recombinant human SOS1 and 300 nM BODIPY-GDP in assay buffer. After a 60-minute incubation, the fluorescence is measured with excitation at 337 nm and emission at 490 and 520 nm. The TR-FRET ratio is determined as the fluorescence at 520 nm divided by the fluorescence at 490 nm multiplied by 10,000. The results are normalized to percent inhibition based on control samples: DMSO (0% inhibition) and control compound at a concentration that inhibits completely (100% inhibition). The normalized TR-FRET results are plotted against compound concentration, and the data are fit to a 4-parameter Hill equation to determine the IC50 values.
# [6] = tested on: PC-9 (KRAS wild type human lung adenocarcinoma cell line); assay: KRAS 3D-Cell Proliferation Assay, PC-9 (Example 503); type: cell-based; conditions: 168 h, PC-9 3D culture, 7 days, CellTiter-Glo 3D, read-out: Prolif PC9 3D ATP IC50
# In short: as §1
# Chain of KRAS G12D (P01116 1-188 isoform P01116-2 G12D): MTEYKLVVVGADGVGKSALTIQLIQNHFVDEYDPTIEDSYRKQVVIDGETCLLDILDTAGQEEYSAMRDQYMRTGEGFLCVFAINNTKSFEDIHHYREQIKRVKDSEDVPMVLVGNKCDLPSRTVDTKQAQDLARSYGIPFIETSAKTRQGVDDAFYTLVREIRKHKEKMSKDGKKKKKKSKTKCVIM
Compound,IC50 (KRAS G12D; BODIPY-GDP exchange),IC50 (KRAS WT [1]),IC50 [2],IC50 [3],IC50 [4],"IC50 (KRAS WT [5]; SOS1-mediated BODIPY-GDP exchange, read-out: KRas(wt) GDP HTRF IC50)",IC50 [6],IC50 (KRAS G12D; SOS1-mediated BODIPY-GDP exchange TR-FRET),"IC50 (KRAS WT [5]; SOS1-mediated BODIPY-GDP exchange TR-FRET, read-out: KRas HTRF IC50)"
"Cc1c(F)c(N)cc(-c2nc3c4c(nc(OC[C@H]5CC[C@@H]6C(=O)N(C)CCN56)nc4c2F)N2C[C@H]4CC[C@H](N4)[C@H]2[C@H](C)O3)c1C(F)(F)F (relative stereo) [Compound 123, 6-((((5S,5aS,6S,9R)-2-(5-Amino-4-fluoro-3-methyl-2-(trifluoromethyl)phenyl)-1-fluoro-5-methyl-5a,6,7,8,9,10-hexahydro-5H-4-oxa-3,10a,11,13,14-pentaaza-6,9-methanonaphtho[1,8-ab]heptalen-12-yl)oxy)methyl)-2-methylhexahydropyrrolo[1,2-a]pyrazin-1(2H)-one]",0.7 nM,181 nM,63 nM,13900 nM,–,–,–,–,–
"C[C@@H]1Oc2nc(-c3cc(N)cc(F)c3C(F)(F)F)c(F)c3nc(OC[C@H]4CC[C@@H]5COC(C)(C)CN45)nc(c23)N2C[C@H]3CC[C@H](N3)[C@@H]12 (relative stereo) [Compound 125, 3-((5S,5aS,6S,9R)-12-((3,3-dimethylhexahydro-1H-pyrrolo[2,1-c][1,4]oxazin-6-yl)methoxy)-1-fluoro-5-methyl-5a,6,7,8,9,10-hexahydro-5H-4-oxa-3,10a,11,13,14-pentaaza-6,9-methanonaphtho[1,8-ab]heptalen-2-yl)-5-fluoro-4-(trifluoromethyl)aniline]",0.23 nM,14.7 nM,2.14 nM,1220 nM,10.2 nM,–,–,–,–
"C[C@@H]1Oc2nc(-c3cc(O)cc4cccc(F)c34)c(F)c3nc(OC[C@@]45CCCN4C[C@H](F)C5)nc(c23)N2C[C@H]3CC[C@H](N3)[C@@H]12 [Compound 9, 5-fluoro-4-((5S,5aS,6S,9R)-1-fluoro-12-(((2R,7aS)-2-fluorotetrahydro-1H-pyrrolizin-7a(5H)-yl)methoxy)-5-methyl-5a,6,7,8,9,10-hexahydro-5H-4-oxa-3,10a,11,13,14-pentaaza-6,9-methanonaphtho[1,8-ab]heptalen-2-yl)naphthalen-2-ol]",0.057 nM,–,11.6 nM,2020 nM,19.3 nM,6.51 nM,7790 nM,–,–
"Cc1nc(N)c(F)c(-c2nc3c4c(nc(OC[C@@]56CCCN5CC5(CC5(F)F)C6)nc4c2F)N2C[C@H]4CC[C@H](N4)[C@H]2[C@H](C)O3)c1C(F)(F)F (stereo partly drawn) [Compound 221, 4-((5S,5aS,6S,9R)-12-(((7a′S)-2,2-Difluorodihydro-1′H,3′H-spiro[cyclopropane-1,2′-pyrrolizin]-7a′(5′H)-yl)methoxy)-1-fluoro-5-methyl-5a,6,7,8,9,10-hexahydro-5H-4-oxa-3,10a,11,13,14-pentaaza[6,9]methanonaphtho[1,8-ab]heptalene-2-yl)-3-fluoro-6-methyl-5-(trifluoromethyl)pyridin-2-amine]",–,–,1.45 nM,498 nM,1.2 nM,–,–,0.39 nM,9.95 nM
